Measurements as given in article PMC2234497 (The Journal of General Physiology, 2004).

Assays:
[1] = molecular target: T1, homomeric (CNGA1) rod CNG channels (Bos taurus, UniProt Q00194); type: cell-based, bovine
T1 sequence (Q00194 1-690): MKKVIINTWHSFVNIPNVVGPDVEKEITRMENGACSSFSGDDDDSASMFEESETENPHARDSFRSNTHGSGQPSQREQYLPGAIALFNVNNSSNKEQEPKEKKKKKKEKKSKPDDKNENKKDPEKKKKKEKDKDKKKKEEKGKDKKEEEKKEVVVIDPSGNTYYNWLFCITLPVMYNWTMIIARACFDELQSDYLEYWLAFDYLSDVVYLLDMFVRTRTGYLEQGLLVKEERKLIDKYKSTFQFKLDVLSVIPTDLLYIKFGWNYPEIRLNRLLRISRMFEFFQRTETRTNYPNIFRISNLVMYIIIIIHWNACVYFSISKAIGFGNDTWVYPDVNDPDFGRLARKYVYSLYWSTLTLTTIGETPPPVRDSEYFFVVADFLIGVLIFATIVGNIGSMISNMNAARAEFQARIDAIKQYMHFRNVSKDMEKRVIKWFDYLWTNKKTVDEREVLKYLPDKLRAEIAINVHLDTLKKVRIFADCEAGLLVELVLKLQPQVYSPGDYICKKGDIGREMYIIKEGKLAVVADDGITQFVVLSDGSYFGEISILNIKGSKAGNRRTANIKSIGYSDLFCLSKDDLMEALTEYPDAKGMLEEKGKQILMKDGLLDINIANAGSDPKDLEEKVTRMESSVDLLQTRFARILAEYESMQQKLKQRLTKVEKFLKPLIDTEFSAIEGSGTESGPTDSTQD

[2] = molecular target: T1, homomeric (CNGA1) rod CNG channels; settings: cited from earlier work
[3] = molecular target: heteromeric (CNGA1 + CNGB1) rod CNG channels (Bos taurus, UniProt Q00194+Q28181); settings: ref Chen et al., 1993; cited from earlier work
[4] = model fit of cGMP dose–response without ATR

Sequence of heteromeric (CNGA1 + CNGB1) rod CNG channels (Q28181 whole entry, one chain of several): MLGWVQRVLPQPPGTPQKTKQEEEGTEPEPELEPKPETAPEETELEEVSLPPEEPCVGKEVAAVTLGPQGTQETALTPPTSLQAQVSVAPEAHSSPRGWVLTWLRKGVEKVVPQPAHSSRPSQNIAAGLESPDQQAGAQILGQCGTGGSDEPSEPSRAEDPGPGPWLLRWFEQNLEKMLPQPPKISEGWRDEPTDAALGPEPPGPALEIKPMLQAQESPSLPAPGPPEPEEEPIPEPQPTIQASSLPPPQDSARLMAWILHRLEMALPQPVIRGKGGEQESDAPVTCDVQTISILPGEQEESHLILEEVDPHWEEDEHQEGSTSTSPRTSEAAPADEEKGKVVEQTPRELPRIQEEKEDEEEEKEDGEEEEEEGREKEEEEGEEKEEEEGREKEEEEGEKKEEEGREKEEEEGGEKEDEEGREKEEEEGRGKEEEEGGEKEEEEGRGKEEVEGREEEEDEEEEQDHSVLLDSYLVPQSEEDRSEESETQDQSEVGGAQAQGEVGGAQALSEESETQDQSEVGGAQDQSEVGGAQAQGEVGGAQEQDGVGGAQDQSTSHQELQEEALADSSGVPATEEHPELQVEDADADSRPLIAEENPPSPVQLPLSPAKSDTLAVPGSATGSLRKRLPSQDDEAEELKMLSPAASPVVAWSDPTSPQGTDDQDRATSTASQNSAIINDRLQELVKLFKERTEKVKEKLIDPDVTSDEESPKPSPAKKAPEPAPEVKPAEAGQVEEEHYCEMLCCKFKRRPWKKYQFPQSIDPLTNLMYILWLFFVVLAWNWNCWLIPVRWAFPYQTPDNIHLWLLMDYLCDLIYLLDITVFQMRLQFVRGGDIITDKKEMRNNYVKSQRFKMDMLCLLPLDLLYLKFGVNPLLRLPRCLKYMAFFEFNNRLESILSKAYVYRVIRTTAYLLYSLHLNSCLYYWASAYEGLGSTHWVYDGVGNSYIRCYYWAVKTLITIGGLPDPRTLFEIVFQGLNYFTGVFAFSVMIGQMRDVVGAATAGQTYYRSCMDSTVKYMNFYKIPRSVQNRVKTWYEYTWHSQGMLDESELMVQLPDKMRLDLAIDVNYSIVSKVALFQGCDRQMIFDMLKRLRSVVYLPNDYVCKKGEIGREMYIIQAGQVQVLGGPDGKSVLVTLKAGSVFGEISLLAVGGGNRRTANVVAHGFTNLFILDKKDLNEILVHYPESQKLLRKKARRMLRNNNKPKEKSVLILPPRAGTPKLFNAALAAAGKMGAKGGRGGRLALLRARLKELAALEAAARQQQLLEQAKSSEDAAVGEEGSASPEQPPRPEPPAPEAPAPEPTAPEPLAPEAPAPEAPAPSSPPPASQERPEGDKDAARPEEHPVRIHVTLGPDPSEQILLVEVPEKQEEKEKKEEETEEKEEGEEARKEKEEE

Nc1nc2c(ncn2[C@@H]2O[C@@H]3COP(=O)(O)O[C@H]3[C@H]2O)c(=O)[nH]1 [cGMP]
open probability predicted by KcN and L ([1]; 2 mM cGMP, no ATR): 0.95
KcN, association constant for cyclic nucleotide binding [1, 4]: 7,200 M^−1
L, equilibrium constant for the allosteric opening transition of the fully liganded channel [1, 4]: 19.8

CC1=C(/C=C/C(C)=C/C=C/C(C)=C/CO)C(C)(C)CCC1 [all-trans-retinol]
inhibition of the rod CNG channel ([2]; ref Dean et al., 2002): inhibited quite well

COc1ccc([C@H]2Sc3ccccc3N(CCN(C)C)C(=O)[C@H]2OC(C)=O)cc1 (relative stereo) [l-cis-diltiazem]
effect on homomeric channels ([2]; ref Chen et al., 1993): little effect
block of heteromeric channels [3]: sensitively blocks
